Conditions: in vivo

SMILES: OO [hydrogen peroxide]
- antibiotics use as fraction of the normal dose: ⅛
- effect on mortality: reduced mortality

From patent publication US12114657B1, “Compositions for use in animal housing” (priority 2017, dated 2024)
